Source: PMC11617665, “Virtual and in Vitro Screening Employing a Repurposing Approach Reveal 13‐cis‐Retinoic Acid is a PTP1B Inhibitor” (Chemmedchem, 2024)

Tests used:
PTP1B [1] = molecular target: T1, PTP1B (Homo sapiens, UniProt P18031); experiment: In vitro spectrophotometric PTP1B inhibition assay (pNPP substrate); assay type: biochemical
T1 sequence (P18031 1-435): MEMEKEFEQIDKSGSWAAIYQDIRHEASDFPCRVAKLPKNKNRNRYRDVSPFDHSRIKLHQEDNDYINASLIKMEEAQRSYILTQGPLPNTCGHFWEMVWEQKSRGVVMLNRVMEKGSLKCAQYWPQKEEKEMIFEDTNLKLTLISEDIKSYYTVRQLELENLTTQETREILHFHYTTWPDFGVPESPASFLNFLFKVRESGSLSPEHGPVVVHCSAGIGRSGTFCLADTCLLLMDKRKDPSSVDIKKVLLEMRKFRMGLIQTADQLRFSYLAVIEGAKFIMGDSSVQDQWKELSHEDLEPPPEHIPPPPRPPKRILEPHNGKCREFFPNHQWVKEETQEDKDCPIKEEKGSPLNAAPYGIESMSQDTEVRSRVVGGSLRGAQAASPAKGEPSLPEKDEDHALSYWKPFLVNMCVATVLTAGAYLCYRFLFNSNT
Experimental: The spectrophotometric method previously described was used.[39] The compounds and the positive control were dissolved in dimethylsulfoxide (DMSO). Aliquots of 0–10 μL solution of the compounds to be tested (in triplicate) were incubated with 85 μL of the enzyme (66 nM) in Tris [50 mM; Tris‐HCI Buffer, pH 6.8] and 5 microliters of the substrate (pNPP, 10 mM), for 15 min at 37 °C. After incubation, the absorbance was determined. The inhibitory activity for the compounds was determined as a percentage compared to the blank (Tris) according to the following equation: (1) %PTP1B=1-A415t/A415cX100%
Where %PTP1B is the percentage inhibition, A415t is the corrected absorbance of the tested compound (A415 final‐A415 initial), and A415c is the corrected absorbance of the blank (A415 final blank‐A415 initial target). The IC50 was calculated by regression analysis using the following equation: (2) %Inhibition=A100/1+I/CI50^s

[2] = set-up: method as in PMID 11375780; conditions: cited from earlier work
[3] = set-up: method as in PMID 19961047; conditions: ingestion during pregnancy or shortly before conception; cited from earlier work
PTP1B [4] = molecular target: T1, PTP1B; experiment: Enzyme kinetics studies, type of inhibition (Lineweaver-Burk); conditions: for type of inhibition: Lineweaver-Burk plot
Experimental: The assay was carried out with different concentrations of inhibitor (0, 0.005, 0.040 and 0.060 mM) and substrate (0.10, 0.20, 0.30, 0.40, and 0.50 mM). Kinetic parameters (Vmax, Km, and Ki) were obtained by nonlinear regression fit analysis using Origin 2018 software.

IC50 (PTP1B [1]; PTP1B 66 nM, pNPP, Tris pH 6.8, 15 min at 37 °C): 44 µM
inhibitory activity against PTP1B (PTP1B [1]; compounds evaluated at 2 mM): significant inhibitory activity
Ki (PTP1B [4]): 23.4 ± 2 µM
type of inhibition (PTP1B [4]): competitive inhibition
type of inhibition (PTP1B [4]; listed as 13‐cis‐retinoic acid): competitive PTP1B inhibitor
Compound: CC1=C(/C=C/C(C)=C/C=C/C(C)=C\C(=O)O)C(C)(C)CCC1 [3a, 13‐cis‐retinoic acid]
DE50 for humans [2]: 0.4 mg/kg
teratogenic effect [3]: teratogen
